Data as given in patent US20230279072A1, “REGULATORY T CELL EPITOPES” (EpiVax Inc., priority 2020, published 2023).
Entries after “also recorded” stand apart in the source; their conditions may differ.

How the values were obtained:
HLA DRB1*0401 = HLA DRB1*0401 (Homo sapiens, UniProt P01903+P01911, A100K/A169T/F76Y/I96L/K127E/L162R/M171V/N62H/P40V/Q125Y/R42H/S133A/S149N/S66Y/V115G/V209L/W38E); assay: HLA DRB1 (IC50) | *0401
HLA DRB1*0701 = HLA DRB1*0701 (Homo sapiens, UniProt P01903+P01911, A100R/A102G/A103Q/D57E/D86V/E43K/F76Y/K127E/L162R/M171V/P40G/Q125H/Q99D/R33Q/R42Y/R54Q/S133A/S66F/T210M/V115G/Y107V/Y59L/Y89S); assay: HLA DRB1 (IC50) | *0701
HLA DRB1*1101 = HLA DRB1*1101 (Homo sapiens, UniProt P01903+P01911, A100R/A169T/A87E/I96F/K41T/L162R/M171V/P40S/Q125H/Q178H/Q39Y/Q99D/R42S/S66Y/T262R/V115G/W38E); assay: HLA DRB1 (IC50) | *1101
[1] = tested on: CD4+ effector memory T cells; assay: Suppression of Tetanus Toxoid stimulated CD4+ effector T cells in PBMC; format: cell-based, human
Protocol: Previously harvested and frozen PBMC were thawed and suspended in conditioned chRPMI (3.3×10^6 cells/mL) by conventional means. Cells were stained with CFSE (Cat #: 65-0850-84, Affymetrix, Santa Clara, Calif.) and plated at 300,000 cells per well. Plates were incubated overnight (37° C. in 5% CO2). […] Previous titration experiments performed at EpiVax (EpiVax, Providence, R.I.) have established that stimulation with 0.5 μg/ml Tetanus Toxoid (TT) (Astarte Biologics, Bothell, Wash.) elicits a measurable CD4+ effector memory T cells response in PBMC drawn from healthy control donors (Rhode Island Blood Center, Providence, R.I.). Tetanus Toxoid stock (100 μg/mL) (Astarte Biologics, Bothell, Wash.) was diluted in conditioned chRPMI yielding a working concentration of 1 ug/mL. […] All plates were then incubated for six additional days. On assay day five, 100 μL of supernatant was removed from each well and replaced with freshly conditioned chRPMI.
On assay day seven, cells were removed from incubation. Cells were labeled for live/dead discrimination, for surface markers CD127, CCR7, CD4, CD45RA, and CD25 and for intracellular FoxP3. Stained cells were further prepared for FACS analysis by conventional means. Cells were first gated to eliminate aggregates and dead cells. Live cells were gated for CD4 T cells and all subsequent analysis was done on this population. The activated Teffector population was identified as the CD4+/CD25-high/FoxP3-intermediate (CD4+/CD25^1/FoxP3int) (FIG. 8A).
Proliferation of CD4+/CD25-high (CD4^+/CD25^hi) T cells was estimated from the dilution of the CFSE stain (Cat #: 65-0850-84, Affymetrix, Santa Clara, Calif.) and % proliferation determined by the CFSE-low (CFSEL^lo) population (FIG. 8B).

[2] = tested on: CD4+ T cells in PBMCs from healthy donors; assay: Tetanus Toxoid Bystander Suppression Assay (TTBSA); format: cell-based, human
[3] = tested on: HLA-DRB1*0101, *0301, *0401, *0701, *1101, *1301 and *1501 alleles; assay: In vitro HLA DRB1 binding assay, panel of seven alleles; design: species or system human
Protocol: The six FV peptides were tested for in vitro binding to HLA-DRB1*0101, *0301, *0401, *0701, *1101, *1301 and *1501 alleles.

[4] = tested on: CD4+CD25+FoxP3+ regulatory T cells; format: cell-based, human
[5] = tested on: PBMCs from lupus patients; conditions: cited from earlier work
human DR molecules = conditions: cited from earlier work

Sequence of HLA DRB1*1101 (P01903 26-254 limits assumed, other chains not shown): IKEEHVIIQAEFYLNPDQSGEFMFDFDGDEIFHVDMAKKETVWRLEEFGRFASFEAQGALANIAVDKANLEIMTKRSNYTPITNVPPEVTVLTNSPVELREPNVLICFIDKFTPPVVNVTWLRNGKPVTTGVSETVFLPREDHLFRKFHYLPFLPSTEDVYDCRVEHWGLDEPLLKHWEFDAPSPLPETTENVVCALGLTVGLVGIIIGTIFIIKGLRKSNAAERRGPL

## CC[C@H](C)[C@H](NC(=O)[C@@H](NC(=O)[C@H](CC(C)C)NC(=O)[C@@H](NC(=O)[C@H](Cc1ccccc1)NC(=O)[C@H](CC(=O)O)NC(=O)[C@@H](NC(=O)CN)[C@@H](C)O)[C@@H](C)O)[C@@H](C)O)C(=O)N[C@@H](CO)C(=O)N[C@@H](CO)C(=O)N[C@@H](CC(C)C)C(=O)N[C@@H](CCC(N)=O)C(=O)N1CCC[C@H]1C(=O)N[C@@H](CCC(=O)O)C(=O)N[C@@H](CC(=O)O)C(=O)O [SEQ ID NO: 117 | Tregitope 084, GTDFTLTISSLQPED]
HLA DRB1*0401
  IC50: < 1 µM
HLA DRB1*0701
  IC50: < 1 µM
HLA DRB1*1101
  IC50: 100 µM

## CC[C@H](C)[C@H](NC(=O)[C@H](CO)NC(=O)[C@H](Cc1ccc(O)cc1)NC(=O)[C@@H]1CCCN1C(=O)[C@H](CCCNC(=N)N)NC(=O)[C@H](CO)NC(=O)[C@H](C)NC(=O)[C@H](CCSC)NC(=O)[C@H](CC(N)=O)NC(=O)[C@H](CCCCN)NC(=O)[C@H](Cc1ccccc1)NC(=O)[C@@H](NC(=O)[C@@H](NC(=O)[C@H](CCCCN)NC(C)=O)[C@@H](C)CC)C(C)C)C(=O)N[C@@H](Cc1ccc(O)cc1)C(N)=O [SEQ ID NO: 3]
[1]
  activated (CD25 high) proliferating (CFSE low) CD4 T cells stimulated by Tetanus Toxoid: no significant inhibitory effect
  activated effector CD4+ T cells (CD4+/CD25-high/FoxP3-intermediate) reacting to Tetanus Toxoid: no appreciable effect
[1]; FIG. 11
  proliferation of CD4− cells: little inhibitory effect
[1]; donor 114, dose-dependent
  proliferation of total CD4+ T cells (CFSE low): little to no effect
[2]
  inhibition of the CD4+ T memory response / T effector proliferation in the TTBSA: did not inhibit
[3]; across the alleles tested
  binding affinity to HLA DR alleles (in words): strong affinity
[3]; seven alleles, listed as FV432
  breadth of binding to HLA DRB1 alleles: binding to nearly all of the HLA DRB1 alleles tested; also recorded: bind to multiple HLA DRB1 alleles
[4]
  relative proportion of highly proliferative regulatory T cells (CFSE low FoxP3+) among CD25+ Granzyme B+ CD4+ T cells: no significant effect

## RIHMVYSKRSGKPRGYAFIEY (listed as Homo sapiens) [peptide 131-151, residues 131-151 of the spliceosome protein]
[5]
  randomly selected lupus patients whose PBMCs contain T cells that proliferate in response to the peptide: 40%
Human DR molecules
  binding to human DR molecules: binds to a large panel of human DR molecules
